For series [1], the system named is human vascular smooth muscle cells adhering to immobilized human vitronectin. The experiment in a line: Inhibitory activity against adhesion of human vascular smooth muscle cells to vitronectin. The format is cell-based. Particulars: 1.5 h; human vitronectin-coated plate, 90 min. The procedure:
Inhibitory Activity Against Adhesion of Human Vascular Smooth Muscle Cells to Vitronectin
The adhesion of human vascular smooth muscle cells =+to immobilized human vitronectin was measured in accordance with the method of Liaw et al. (Liaw L, Almeida M, Hart C E, Schwartz S M, and Giachelli C M, Circulation Research, 74 (2), 214-224 (1994)).
A Dulbecco's phosphate buffer (Dulbecco's PBS(−), Nissui Pharmaceutical Co., Ltd.) solution of human plasma-derived vitronectin (CALBIOCHEM) adjusted to a concentration of 4 μg/ml was first added to wells (50 μl/well) of a microplate (Maxisorp, Nunc), and a reaction for immobilization was allowed to proceed at 4° C. overnight. After washing twice with 150 μl of Dulbecco's phosphate buffer, a Dulbecco's phosphate buffer containing 10 mg/ml of bovine serum albumin (SIGMA) was added, followed by blocking at 37° C. for one hr. The assay plate was washed twice with 150 μl of Dulbecco's phosphate buffer.
Separately, human vascular smooth muscle cells cultivated at 37° C. under 5% carbon dioxide in a medium for vascular smooth muscle cells (Clonetics) were separated using a Dulbecco's phosphate buffer containing trypsin-EDTA (GIBCO BRL), washed with Dulbecco's phosphate buffer, and then suspended in a Dulbecco's modified Eagle's basal medium (Nissui Pharmaceutical Co., Ltd.) containing 0.1% bovine serum albumin to a concentration of 5×10^5/ml.
Next, 50 μl of a Dulbecco's modified Eagle's basal medium containing 10 mg/ml of bovine serum albumin with a medicament added thereto was added to the wells of the human vitronectin-coated assay microplate, followed by pre-cultivation under 5% carbon dioxide at 37° C. for 10 min. Thereafter, 50 μl of the medium with human vascular smooth muscle cells suspended therein was added thereto, and the plate was thoroughly stirred. A reaction was allowed to proceed under 5% carbon dioxide at 37° C. for 90 min. The reaction solution containing non-adherent cells were then removed, followed by washing three times with Dulbecco's phosphate buffer. For the adhered cells, 100 μl of a Dulbecco's phosphate buffer containing 4% paraformaldehyde (Wako Pure Chemical Industries, Ltd.) was added, and immobilization was allowed to proceed at room temperature for 10 min. Next, 100 μl of a Dulbecco's phosphate buffer containing 0.5% Toluidine Blue (Croma) and 4% paraformaldehyde was added, and staining was allowed to proceed at room temperature for 5 min, followed by thorough washing with distilled water. The inside of the wells was then air-dried, and a 1% aqueous sodium dodecylsulfate solution was then added to perform cytolysis. The absorbance of the microplate thus obtained was measured at 595 nm. […] The inhibition was calculated by the following equation. IC50 was determined from a primary regression line of the logarithm of each concentration of the test compound and the logarithm of (100−inhibition)/inhibition. [formula]

Series [2] concerns the target GP IIb/IIIa (Homo sapiens, UniProt P05106+P08514). The experiment in a line: GP IIb/IIIa antagonistic activity (method of Pharmacological Test 2 in WO 94/21599). The format is binding. The method, then: GP IIb/IIIa Antagonistic Activity and Human Platelet Aggregation Inhibitory Activity
GP IIb/IIIa antagonistic activity was measured for the compounds according to the present invention. The measurement of the GP IIb/IIIa antagonistic activity was carried out according to the method described in Pharmacological Test 2 in WO 94/21599.

Series [3] in a line: Acute toxicity test in mice. The format is in vivo. The following applies: intravenously administered to three mice at a dose of 50 mg/kg. The procedure: The compound of Example 52 was intravenously administered to three mice at a dose of 50 mg/kg.
Series [4] deals with T1, integrin αvβ3 (vitronectin receptor purified from the human placenta) (Homo sapiens, UniProt P05106+P06756).
T1 construct: a vitronectin receptor (protein content: 118 μg/ml) purified from the human placenta; from tissue; host or cells: human placenta
Nature of the series: αvβ3 binding assay (vitronectin-vitronectin receptor binding assay). Particulars: vitronectin binding to human placenta vitronectin receptor; read-out: integrin αvβ3 antagonistic activity, IC50 value.

T1 sequence (P06756 31-889 limits assumed): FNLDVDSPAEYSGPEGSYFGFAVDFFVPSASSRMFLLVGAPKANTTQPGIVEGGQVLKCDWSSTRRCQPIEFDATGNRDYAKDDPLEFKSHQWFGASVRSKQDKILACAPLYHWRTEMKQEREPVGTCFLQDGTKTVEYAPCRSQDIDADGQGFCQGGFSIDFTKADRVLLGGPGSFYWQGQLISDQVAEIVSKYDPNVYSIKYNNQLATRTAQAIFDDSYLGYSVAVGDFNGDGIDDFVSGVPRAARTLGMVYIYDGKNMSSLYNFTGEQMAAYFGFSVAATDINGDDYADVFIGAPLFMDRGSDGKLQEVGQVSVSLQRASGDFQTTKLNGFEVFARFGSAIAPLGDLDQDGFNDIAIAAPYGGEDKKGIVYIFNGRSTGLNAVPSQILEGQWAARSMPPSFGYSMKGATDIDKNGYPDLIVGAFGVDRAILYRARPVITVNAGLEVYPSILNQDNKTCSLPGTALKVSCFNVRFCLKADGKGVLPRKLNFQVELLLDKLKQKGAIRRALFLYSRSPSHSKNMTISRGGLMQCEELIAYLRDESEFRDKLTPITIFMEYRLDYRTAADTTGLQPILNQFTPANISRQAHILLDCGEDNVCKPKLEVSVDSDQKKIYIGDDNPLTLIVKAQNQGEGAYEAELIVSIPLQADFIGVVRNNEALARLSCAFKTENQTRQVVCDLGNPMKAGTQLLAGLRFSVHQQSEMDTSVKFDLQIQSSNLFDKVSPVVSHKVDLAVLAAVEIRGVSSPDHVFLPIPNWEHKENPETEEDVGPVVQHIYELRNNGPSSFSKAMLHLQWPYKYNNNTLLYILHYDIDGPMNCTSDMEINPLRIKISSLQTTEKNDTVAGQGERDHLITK
T1 sequence (P06756 891-1048 limits assumed): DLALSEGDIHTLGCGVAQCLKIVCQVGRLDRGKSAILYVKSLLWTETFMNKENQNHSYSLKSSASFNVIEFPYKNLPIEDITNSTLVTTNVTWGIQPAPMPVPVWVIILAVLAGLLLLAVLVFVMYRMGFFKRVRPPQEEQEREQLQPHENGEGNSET
T1 sequence (P05106 27-788): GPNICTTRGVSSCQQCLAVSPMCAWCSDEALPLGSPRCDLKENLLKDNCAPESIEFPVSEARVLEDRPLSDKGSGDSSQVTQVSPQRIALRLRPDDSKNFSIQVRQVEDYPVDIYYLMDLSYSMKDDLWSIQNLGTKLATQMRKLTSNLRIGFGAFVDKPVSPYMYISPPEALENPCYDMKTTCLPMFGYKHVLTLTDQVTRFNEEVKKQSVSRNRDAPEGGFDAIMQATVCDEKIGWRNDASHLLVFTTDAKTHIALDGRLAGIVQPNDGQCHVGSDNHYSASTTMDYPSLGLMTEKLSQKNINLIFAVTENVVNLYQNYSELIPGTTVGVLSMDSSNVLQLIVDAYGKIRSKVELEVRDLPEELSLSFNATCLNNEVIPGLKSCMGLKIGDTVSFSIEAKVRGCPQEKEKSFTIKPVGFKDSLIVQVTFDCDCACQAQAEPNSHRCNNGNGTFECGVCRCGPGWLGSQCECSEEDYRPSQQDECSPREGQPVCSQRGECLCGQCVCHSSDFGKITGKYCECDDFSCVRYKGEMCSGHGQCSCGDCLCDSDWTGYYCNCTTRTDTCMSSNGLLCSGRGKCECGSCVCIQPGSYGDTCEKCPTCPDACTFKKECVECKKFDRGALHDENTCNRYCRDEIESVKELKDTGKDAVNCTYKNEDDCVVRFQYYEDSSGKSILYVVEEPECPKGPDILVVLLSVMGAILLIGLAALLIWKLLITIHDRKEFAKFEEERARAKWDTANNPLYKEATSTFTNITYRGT
Chain of GP IIb/IIIa (P08514 32-887 limits assumed): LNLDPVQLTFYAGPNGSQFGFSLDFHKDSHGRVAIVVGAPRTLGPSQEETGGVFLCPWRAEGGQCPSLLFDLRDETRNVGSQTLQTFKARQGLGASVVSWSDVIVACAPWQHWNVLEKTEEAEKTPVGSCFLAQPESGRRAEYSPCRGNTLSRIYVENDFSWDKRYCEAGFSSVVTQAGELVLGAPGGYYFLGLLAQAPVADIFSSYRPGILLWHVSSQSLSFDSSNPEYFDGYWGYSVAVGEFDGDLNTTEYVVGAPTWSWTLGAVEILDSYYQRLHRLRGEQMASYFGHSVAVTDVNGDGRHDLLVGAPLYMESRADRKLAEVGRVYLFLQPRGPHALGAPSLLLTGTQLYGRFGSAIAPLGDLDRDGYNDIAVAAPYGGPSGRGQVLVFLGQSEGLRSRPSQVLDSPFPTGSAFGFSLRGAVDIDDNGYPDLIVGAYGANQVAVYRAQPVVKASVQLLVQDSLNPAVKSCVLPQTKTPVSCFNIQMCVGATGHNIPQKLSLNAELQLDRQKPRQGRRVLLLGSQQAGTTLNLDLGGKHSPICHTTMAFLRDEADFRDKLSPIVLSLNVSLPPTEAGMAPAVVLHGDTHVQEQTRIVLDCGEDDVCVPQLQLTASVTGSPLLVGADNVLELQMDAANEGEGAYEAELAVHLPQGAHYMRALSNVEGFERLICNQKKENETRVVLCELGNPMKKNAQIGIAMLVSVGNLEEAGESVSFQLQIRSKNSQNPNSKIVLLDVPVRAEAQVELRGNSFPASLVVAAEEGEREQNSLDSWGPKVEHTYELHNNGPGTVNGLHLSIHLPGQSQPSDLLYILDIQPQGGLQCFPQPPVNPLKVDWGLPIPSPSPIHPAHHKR
Chain of GP IIb/IIIa (P08514 891-1039 limits assumed): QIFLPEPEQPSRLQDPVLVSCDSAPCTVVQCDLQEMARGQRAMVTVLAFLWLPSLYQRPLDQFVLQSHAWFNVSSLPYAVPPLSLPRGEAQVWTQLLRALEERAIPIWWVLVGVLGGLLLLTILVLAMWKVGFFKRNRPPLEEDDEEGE
Chain of GP IIb/IIIa (P05106 27-788): as the sequence (P05106 27-788) above

For `O=C(NC[C@H](NS(=O)(=O)c1ccccc1)C(=O)O)c1ccc(N2CCC(NC3=NCCCN3)CC2)c(F)c1` [Example 52, (2S)-Benzenesulfonylamino-3-[3-fluoro-4-{4-(1,4,5,6-tetrahydropyrimidin-2-ylamino)piperidin-1-yl}-benzoylamino]propionic acid], the IC50 is at most 70 nM in series [1], at most 1 nM in series [2] and at most 1 nM in series [4]. Besides, the “survival in acute toxicity test” value in series [3] is on record as “all the mice survived”. In addition, the “change in weight in acute toxicity test” value in series [3] (compared with solvent group) was “the same as a group of mice to which only a solvent had been administrered”.
